Laboratory results: patent US7601838B2, “2-Alkyl/aryl sulphonyl-1,2,3,4-tetrahydro-9H-pyrido (3,4-b) indole-3-carboxylic acid esters/amides useful as antithrombotic agents” (Council of Scientific and Industrial Research, priority 2004, dated 2009)

Legend:
[1] = system: collagen and epinephrine induced thrombosis in mice; test: Effect on mouse thrombosis: collagen and adrenaline induced pulmonary thromboembolism; type: in vivo; conditions: for protection against collagen and epinephrine induced thrombosis (in words): 30 μM/kg
Method: Pulmonary thromboembolism was induced by following a method of Diminno and Silver^(1). Test compounds (30 μM/Kg) or vehicle were administered orally 60 min prior to the thrombotic challenge. A mixture of collagen (150 μg/ml) and adrenaline (50 μg/mL) was administered by the rapid intravenous injection into the tail vein to induce hind limb paralysis or death. A group of 10 animals were used to evaluate the effect of test compound, while 5 mice were used to assess effect of a standard drug, aspirin and a group of vehicle treated (n=5) mice was also used each experiment.
% Protection was expressed as: […]
Ptest is the number of animals paralyzed/dead in the test compound-treated group, and Pcontrol is the number of animals paralyzed/dead in vehicle treated group.

mouse-tail Bleeding time = test: Effect on mouse-tail bleeding time; conditions: mice
Method: The tail 2 mm from tip was incised and the blood oozed was soaked with filter paper till the bleeding stops. The time elapsed from the tip incision to the stoppage of bleeding was determined as the bleeding time. Test compound (30 μM/kg), aspirin or vehicle was given orally 60 min prior to the tail incision. Each group consisted of 5 mice.

[2] = system: stasis induced thrombosis in LPS treated rabbits; test: Rabbit venous thrombosis model (stasis induced thrombosis in LPS treated rabbits); type: in vivo, New Zealand white strain rabbits
Method: (§1) [formula] 1.4 Evaluation of coagulation parameters: Blood was collected by cardiac puncture from ether-anaesthetized rat using a syringe containing 3.2% tri-sodium citrate (9:1, v/v). Plasma was obtained by centrifugation of citrated blood at 2500×g for 15 min at 20° C. Stock solutions of the test compounds were prepared freshly in DMSO and were diluted in DMSO. Thrombin time (TT), prothrombin time (PT) and activated partial thromboplastin time (aPTT) were evaluated according to manufacturer's instructions supplied with kits (Stago, France) and measured by Coagulometer (Stago, France)^(4). In each set of experiment effect of DMSO on these parameters was also assessed and was used to calculate change in TT, PT or aPTT. 1.5 Rabbit venous thrombosis model: Experiments were performed on New Zealand white strain rabbits (2-3 kg) either sex. Escherichia coli LPS strain 1055:B5 (Sigma Chemicals, USA) was injected intravenously via ear vein (1 μg/kg)^(5,6). Jugular veins on both sides were exposed and dissected free from surrounding tissue. Two loose surer were placed 1.5 cm apart and all collateral veins were ligated. Four hours after E. coli endotoxin injection (animal is watched for any signs of hypersensitivity reaction during this period), stasis was established and maintained for 45 min by tightening the two sutures. Ligated segments were removed and opened longitudinally and the thrombus was carefully removed and weighed. Heparin sodium (Beparine from beef intestinal mucosa ≧140 USP units/mg; Biological E. Limited, India) was given in doses of (0.5, 0.25, 0.1 mg/kg i.v., via ear vein) 5 min before stasis. 1.6 Effect of compound (i) on human platelet aggregation in vitro: Platelet aggregation study was done on human platelets following isolation of PRP from the human blood as described above (1.3). Aggregation was induced by collagen (10 μg/ml, 5 μg/ml), ADP (10 μM) and thrombin (0.5 U/ml). 2. Results: Effect of test compounds is indicated in the following table (1) against collagen and epinephrine induced thrombosis in mice, which is a primary screening model to detect antithrombotic efficacy of the test agents. At the same dose these compounds were also evaluated for their effect on the bleeding time in mouse (Table 1).
(§2) Effect on venous thrombosis model in rabbit: The selected compounds were evaluated at 10 μM/Kg and 30 μM/kg dose for their efficacy against stasis induced thrombosis in LPS treated rabbits. […] Ex vivo effect of selective compounds on rat platelet aggregation: Blood was collected in sodium citrate to obtain PRP and evaluate the ex vivo effect of selective compounds ((i), (ii), (iii) at 30 μM/kg administered by the ip route) against ADP, collagen, phorbol myristate ester (PMA) calcium ionophore (A23187), or thrombin induced aggregation. It was observed that all these compounds were consistent against collagen-induced platelet aggregation (Table 3). (iii) inhibited ADP (10 μM), collagen (10 μg/ml), PMA (1.5 μM), and thrombin (0.64 U/ml) induced platelet aggregation while no inhibition was found against calcium ionophore A23187 (2.5 μg/ml) induced platelet aggregation. […] Effect on clotting parameters: The selected compounds were also tested in vitro for their effect on thrombin time (TT), prothrombin time (PT) and activated partial thromboplastin time (aPTT) at 100 μg/ml and 200 μg/ml in vitro (Table 4). The test compounds at 100 μg/ml had no significant effect of on these parameters. Some effect was though seen on PT at 200 μg/ml concentration, but the concentration seems to be quite high.
Values are Mean±; Compound (i); n=2, Compound (ii); n=4, Compound (iii), n=4 [n is no. of observations in 2 or more animals at 10 μM/Kg or 30 μM/Kg p.o. administered 2 h prior to the stasis] or vehicle control [n=10 observations in five animals]. In heparin treated group n=6 observations for each dose in nine animals.

[3] = system: thrombin time (TT), prothrombin time (PT) and activated partial thromboplastin time (aPTT); test: Evaluation of coagulation parameters (TT, PT, aPTT) in rat plasma in vitro; type: biochemical
Method: as §1, §2

rat platelet aggregation = test: Ex vivo effect on rat platelet aggregation (PRP, aggregometer); type: cell-based, Sprague Dawley rats; conditions: 30 μM/kg ip; for % Aggregation / % Inhibition: rat PRP; for inhibition of calcium ionophore A23187 induced platelet aggregation (in words): A23187 (2.5 μg/ml); for inhibition of calcium ionophore A23187 induced platelet aggregation (in words) / inhibition of ADP induced platelet aggregation (in words) / inhibition of PMA induced platelet aggregation (in words) / inhibition of collagen induced platelet aggregation (in words) / inhibition of thrombin induced platelet aggregation (in words): rat; for inhibition of ADP induced platelet aggregation (in words): ADP (10 μM); for inhibition of PMA induced platelet aggregation (in words): PMA (1.5 μM); for inhibition of collagen induced platelet aggregation (in words): collagen (10 μg/ml); for inhibition of thrombin induced platelet aggregation (in words): thrombin (0.64 U/ml)
Method: Sodium citrate: The blood was centrifuged at 275×g for 20 min and the platelet rich plasma (PRP) was collect. The remaining blood was further centrifuged at 1500 g for 15 min at 20° C. to obtain platelet poor plasma (PPP). The platelet count in the PRP was adjusted to 2×10^8 cells/ml by using PPP. Adenosine-5′-diphosphate (ADP), thrombin, collagen, calcium ionophore A23187 or phorbol myristate ester (PMA) induced aggregation was monitored on a dual channel aggregometer (Chrono-log, USA). The test compound was incubated with PRP or 5 min before the addition of aggregation on inducing agent. Percent inhibition of the test compounds at various concentrations was calculated as follows: […]
as §2

[4] = 30 μM/kg orally 60 min prior to collagen + adrenaline challenge
[5] = 10 μM/Kg dose p.o. 2 h prior to the stasis
[6] = 30 μM/Kg dose p.o. 2 h prior to the stasis

Row | SMILES | Antithrombotic activity (AT) (% protection) [1, 4] | protection against collagen and epinephrine induced thrombosis (in words) [1] | % Reduction (thrombus wt.) [2, 6] [%] | Thrombus wt. [2, 6] | Activated partial thromboplastin time (aPTT) % Change ([3]; 100 μg/ml in vitro) [%] | Prothrombin time (PT) % Change ([3]; 100 μg/ml in vitro) [%] | Thrombin time (TT) % Change ([3]; 100 μg/ml in vitro) [%] | Activated partial thromboplastin time (aPTT) % Change ([3]; 200 μg/ml in vitro) [%] | Prothrombin time (PT) % Change ([3]; 200 μg/ml in vitro) [%] | Thrombin time (TT) % Change ([3]; 200 μg/ml in vitro) [%] | % Aggregation (rat platelet aggregation; A23187 (2.5 μg/ml) induced) [%] | % Inhibition (rat platelet aggregation; A23187 (2.5 μg/ml) induced) [%] | inhibition of calcium ionophore A23187 induced platelet aggregation (in words) (rat platelet aggregation) | % Aggregation (rat platelet aggregation; ADP (10 μM) induced) [%] | % Inhibition (rat platelet aggregation; ADP (10 μM) induced) [%] | inhibition of ADP induced platelet aggregation (in words) (rat platelet aggregation) | % Aggregation (rat platelet aggregation; Collagen (10 μg/ml) induced) [%] | % Inhibition (rat platelet aggregation; Collagen (10 μg/ml) induced) [%] | % Aggregation (rat platelet aggregation; PMA (1.5 μM) induced) [%] | % Inhibition (rat platelet aggregation; PMA (1.5 μM) induced) [%] | other results
1 | COC(=O)C1Cc2c([nH]c3ccccc23)CN1S(=O)(=O)c1ccccc1C(F)(F)F (racemic) [j, 2[2-trifluoromethylbenzenesulfonyl]-1,2,3,4,-tetrahydro-9H-pyrido[3,4-b]in-dole-3-carboxylic acid ester] | 56% |  |  |  |  |  |  |  |  |  |  |  |  |  |  |  |  |  |  |  | Bleeding time (BT) % increase (1 hr) (mouse-tail Bleeding time; 30 μM/kg orally 60 min prior to tail incision): 150%
2 | CC(=O)Oc1ccccc1C(=O)O [Aspirin, reference compound] |  |  |  |  |  |  |  |  |  |  |  |  |  |  |  |  |  |  |  |  | Antithrombotic activity (AT) (% protection) ([1]; 30 mg/Kg (aspirin, standard drug)): 38 ± 3 (n = 24) %; Bleeding time (BT) % increase (1 hr) (mouse-tail Bleeding time; 30 mg/Kg (aspirin)): 125 ± 6 (n = 30) %
3 | COc1ccc(S(=O)(=O)N2Cc3[nH]c4ccccc4c3CC2C(N)=O)cc1 (centres unmarked) [Compound (ii), 2[-4-methoxybenzenesulfonyl]-1,2,3,4,-tetrahydro-9H-pyrido[3,4-b]indole-3-carboxylic acid amide] | 70 ± 10 (n = 3) % | exhibited significant protection | 88 | 5 ± 4 | 13 ± 7 | 9 ± 5 | 9 ± 5 | 11 ± 4 | 14 ± 7 | 9 ± 4 | 51 ± 5 | 54 ± 4 | inhibited | 35 ± 5 | 26 ± 10 | inhibited | 5 ± 1 | 79 ± 7 | 44 ± 12 | 26 ± 0.3 | % Reduction (thrombus wt.) [2, 5]: −67%; Thrombus wt. [2, 5]: 79 ± 9; inhibition of PMA induced platelet aggregation (in words) (rat platelet aggregation): inhibited; % Aggregation (rat platelet aggregation; Thrombin (0.64 U/ml) induced): 44 ± 10%; % Inhibition (rat platelet aggregation; Thrombin (0.64 U/ml) induced): 4 ± 10%; inhibition of collagen induced platelet aggregation (in words) (rat platelet aggregation): inhibited; inhibition of thrombin induced platelet aggregation (in words) (rat platelet aggregation): did not inhibit
4 | NC(=O)C1Cc2c([nH]c3ccccc23)CN1S(=O)(=O)c1ccc2ccccc2c1 (centres unmarked) [Compound (iii), 2-[2-naphthalenesulfonyl]-1,2,3,4,-tetrahydro-9H-pyrido[3,4-b]indole-3-carboxylic acid amide] | 70 ± 0 (n = 3) % | exhibited significant protection | 57 | 11 ± 5 | 11 ± 4 | −0.24 ± 0.8 | 10 ± 4 | 10 ± 8 | 9 ± 0.2 | 6 ± 1 | 57 ± 6 | −25 ± 2 | no inhibition | 2 ± 0.4 | 94 ± 0.2 | inhibited | 2.5 ± 0 | 47 ± 13 | 38 ± 13 | 32 ± 5 | inhibition of PMA induced platelet aggregation (in words) (rat platelet aggregation): inhibited; % Aggregation (rat platelet aggregation; Thrombin (0.64 U/ml) induced): 28 ± 3%; % Inhibition (rat platelet aggregation; Thrombin (0.64 U/ml) induced): 40 ± 6%; inhibition of collagen induced platelet aggregation (in words) (rat platelet aggregation): inhibited; inhibition of thrombin induced platelet aggregation (in words) (rat platelet aggregation): inhibited
